In patent US20080118980A1, “Estrogen Enhancing Differentiation of Human Mesenchymal Stromal Cells and Adipose-derived Stromal Cells” (The Board of Trustees of the University of Illinois,, priority 2006, published 2008):

Test system: human bone marrow mesenchymal stem cells (MSCs)
Experiment: Proliferation of human bone marrow MSCs in basic medium with E2 or E3 (MTS, Example 3)
Type: cell-based
Procedure: This study investigates the mitogenic effects of estrogen receptor ligands on human bone marrow MSCs that is not contacted with osteogenic or adipogenic medium. Purified human bone marrow mesenchymal stem cells (MSCs) were purchased commercially. MSCs were respectively exposed to basic medium (DMEM+10% FBS+1% antibiotics), and basic medium supplement with 10^−6 and 10^−9 M 17-β estradiol (E2) and estriol (E3) for approximately one week. Then, various cells were plated into 96-well plates in 500 cells/well and continued to be exposed to the media. After 4 days, cell densities were measured by MTS methods and compared to initial densities. FIG. 8 illustrates the increase of the number of MSCs after being treated with basic medium and basic medium supplemented with E2 or E3.

C[C@]12CC[C@@H]3c4ccc(O)cc4CC[C@H]3[C@@H]1C[C@@H](O)[C@@H]2O [E3, estriol]
cell proliferation (MTS assay and cell counting) (10^−6 and 10^−9 M, about one week then 4 days in 96-well plates, FIG. 8): greatly increased | differentiation capabilities (adipogenic and osteogenic) of modulated MSCs (vs controls): maintain their differentiation capabilities
